Among the data in ChEMBL document CHEMBL3044953, “Effect of nitrogen insertion on the antitussive properties of menthol and camphor” (Med Chem Res, 2012) are inhibition and Activity values, retold here.

Series [1] is filed under the species Cavia porcellus. Put plainly: Antitussive activity against crtric acid-induced cough in Cavia porcellus (guinea pig) model assessed as reduction in cough response at 250 to 500 ug/ml for 5 min through aerosol prior to exposure of aerosolized citric acid for 10 min. It is filed as functional, organism-based.
The species entered for series [2] is Cavia porcellus. The series is described as follows: Antitussive activity against crtric acid-induced cough in Cavia porcellus (guinea pig) model assessed as increase in cough latency at 500 ug/ml for 5 min through aerosol prior to exposure of aerosolized citric acid for 10 min. In kind it is functional, organism-based.
Series [3] is filed under the species Cavia porcellus. Put plainly: Antitussive activity against crtric acid-induced cough in Cavia porcellus (guinea pig) model assessed as cough response at 125 ug/ml for 5 min through aerosol prior to exposure of aerosolized citric acid for 10 min. In kind it is functional, organism-based.
The species named for series [4] is Cavia porcellus. Put plainly: Antitussive activity against crtric acid-induced cough in Cavia porcellus (guinea pig) model assessed as cough latency at 125 to 250 ug/ml for 5 min through aerosol prior to exposure of aerosolized citric acid for 10 min. It is filed as functional, organism-based.
For series [5], the species on record is Cavia porcellus. Put plainly: Antitussive activity against crtric acid-induced cough in Cavia porcellus (guinea pig) model assessed as reduction in cough response at 15 to 60 ug/ml for 5 min through aerosol prior to exposure of aerosolized citric acid for 10 min. It is filed as functional, organism-based.
The species entered for series [6] is Cavia porcellus. Put plainly: Antitussive activity against crtric acid-induced cough in Cavia porcellus (guinea pig) model assessed as increase in cough latency at 30 to 60 ug/ml for 5 min through aerosol prior to exposure of aerosolized citric acid for 10 min. It is filed as functional, organism-based.
Series [7] is filed under the species Cavia porcellus. The series is described as follows: Toxicity in Cavia porcellus (guinea pig) assessed as adverse behavior at 125 to 500 ug/ml through aerosol. In kind it is organism-based. The conditions noted are these: in vivo, inhaled_or_intranasal.
For series [8], the species on record is Cavia porcellus. Put plainly: Toxicity in Cavia porcellus (guinea pig) assessed as irritation at 125 to 500 ug/ml through aerosol. In kind it is organism-based. Conditions: in vivo, inhaled_or_intranasal.
Series [9] is filed under the species Cavia porcellus. The series is described as follows: Antitussive activity against crtric acid-induced cough in Cavia porcellus (guinea pig) model assessed as reduction in cough response at 125 to 500 ug/ml for 5 min through aerosol prior to exposure of aerosolized citric acid for 10 min. In kind it is functional, organism-based.
The species named for series [10] is Cavia porcellus. Put plainly: Antitussive activity against crtric acid-induced cough in Cavia porcellus (guinea pig) model assessed as increase in cough latency at 250 to 500 ug/ml for 5 min through aerosol prior to exposure of aerosolized citric acid for 10 min. In kind it is functional, organism-based.
For series [11], the species on record is Cavia porcellus. The series is described as follows: Antitussive activity against crtric acid-induced cough in Cavia porcellus (guinea pig) model assessed as cough latency at 125 ug/ml for 5 min through aerosol prior to exposure of aerosolized citric acid for 10 min. It is filed as functional, organism-based.
Series [12] is filed under the species Cavia porcellus. The series is described as follows: Toxicity in Cavia porcellus (guinea pig) assessed as adverse behavior at 15 to 60 ug/ml through aerosol. It is filed as organism-based. Conditions: in vivo, inhaled_or_intranasal.
Series [13] is filed under the species Cavia porcellus. The series is described as follows: Toxicity in Cavia porcellus (guinea pig) assessed as irritation at 15 to 60 ug/ml through aerosol. It is filed as organism-based. Conditions: in vivo, inhaled_or_intranasal.
The species entered for series [14] is Cavia porcellus. The series is described as follows: Antitussive activity against crtric acid-induced cough in Cavia porcellus (guinea pig) model assessed as increase in cough latency at 15 to 60 ug/ml for 5 min through aerosol prior to exposure of aerosolized citric acid for 10 min. In kind it is functional, organism-based.

Molecules are shown by their SMILES. Calls of active or inactive are those of the source. The rule behind the calls is not given here.

As to `CC12CCC(CC1=O)C2(C)C` (stereo not given), the inhibition result in the series listed under Cavia porcellus [1] was “Active”. Besides, the result in the series listed under Cavia porcellus [2] was Active. Further, the inhibition entry in the series filed under Cavia porcellus [3] is “inactive”. Also, the result in the series listed under Cavia porcellus [4] was inactive.
In the case of `CC1CCC(C(C)C)C(O)C1` (stereo not given), in the series filed under Cavia porcellus [5], the inhibition result was “Active”. The outcome in the series listed under Cavia porcellus [6] was Active.
Take `CC1(C)C2CC[C@]1(C)C(=O)NC2` [Alpha-camphidone]: the Activity entry in the series listed under Cavia porcellus [7] and in the series filed under Cavia porcellus [8] was “Non-toxic” throughout. The inhibition result in the series listed under Cavia porcellus [9] was “Active”. The result in the series filed under Cavia porcellus [10] was Active. In addition, the outcome in the series listed under Cavia porcellus [11] was inactive.
As for `CC(C)[C@@H]1CC[C@@H](C)CC(=O)N1` [Menthol lactam], the Activity entry in the series listed under Cavia porcellus [12] and in the series filed under Cavia porcellus [13] was “Non-toxic” throughout. The inhibition result in the series filed under Cavia porcellus [5] was “Active”. In the series filed under Cavia porcellus [14], the outcome was Active.
